Assays:
Assay in all cases: relative viability (nuclei count vs DMSO), 5 days (fraction); higher = more cells survive
H3255 = tested on: H3255
Outline: (§1)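 Lung cancer cell lines in 1536-well plates were dosed by pin tool the day after seeding, either with one drug alone or with a fixed anchor-drug dose plus five library-drug doses (not always all listed) in √10 steps. After 5 days, cells were fixed and their nuclei stained in one step (final 0.05% Triton X-100, 1% formaldehyde, 1 ug/ml Hoechst), then counted on 4× images. Relative viability is the nuclei count in treated wells divided by that in vehicle wells. Values are medians of duplicate plates.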

NCI-H2085 = tested on: NCI-H2085
Outline: as §1

NCI-H2087 = tested on: NCI-H2087
Outline: as §1

LXF-289 = tested on: LXF-289
Outline: as §1

HCC-15 = tested on: HCC-15
Outline: as §1

NCI-H1437 = tested on: NCI-H1437
Outline: as §1

NCI-H23 = tested on: NCI-H23
Outline: as §1

NCI-H661 = tested on: NCI-H661
Outline: as §1

PC-14 = tested on: PC-14
Outline: as §1

PC-3 [JPC-3] = tested on: PC-3 [JPC-3]
Outline: as §1

NCI-H2228 = tested on: NCI-H2228
Outline: as §1

NCI-H2009 = tested on: NCI-H2009
Outline: as §1

HCC-366 = tested on: HCC-366
Outline: as §1

NCI-H2342 = tested on: NCI-H2342
Outline: as §1

LC-2-ad = tested on: LC-2-ad
Outline: as §1

COR-L23 = tested on: COR-L23
Outline: as §1

SK-MES-1 = tested on: SK-MES-1
Outline: as §1

HCC-827 = tested on: HCC-827
Outline: as §1

LCLC-103H = tested on: LCLC-103H
Outline: as §1

NCI-H1975 = tested on: NCI-H1975
Outline: as §1

NCI-H1666 = tested on: NCI-H1666
Outline: as §1

UMC-11 = tested on: UMC-11
Outline: as §1

`CCNC(=O)c1noc(-c2cc(C(C)C)c(O)cc2O)c1-c1ccc(CN2CCOCC2)cc1` [Luminespib] + CC(=O)Nc1cccc(-n2c(=O)n(C3CC3)c(=O)c3c(Nc4ccc(I)cc4F)n(C)c(=O)c(C)c32)c1 [Trametinib] (partner 0.02 µM) was tested, and the relative viability (H3255; first compound 0.002 µM) was 0.549, the relative viability (H3255; first compound 0.02 µM) was 0.405 and the relative viability (H3255; first compound 0.06325 µM) was 0.386. It also gave a relative viability (H3255; first compound 0.2 µM) of 0.278, a relative viability (NCI-H2085; first compound 0.002 µM) of 0.535 and a relative viability (NCI-H2085; first compound 0.006325 µM) of 0.507. For the same molecule, the relative viability (NCI-H2085; first compound 0.02 µM) was 0.33, the relative viability (NCI-H2085; first compound 0.06325 µM) was 0.202 and the relative viability (NCI-H2085; first compound 0.2 µM) was 0.241. For the same molecule, the relative viability (NCI-H2087; first compound 0.002 µM) was 0.197, the relative viability (NCI-H2087; first compound 0.006325 µM) was 0.218 and the relative viability (NCI-H2087; first compound 0.02 µM) was 0.205. It also gave a relative viability (NCI-H2087; first compound 0.06325 µM) of 0.146, a relative viability (NCI-H2087; first compound 0.2 µM) of 0.11 and a relative viability (LXF-289; first compound 0.002 µM) of 0.691. The relative viability (LXF-289; first compound 0.006325 µM) was 0.649, the relative viability (LXF-289; first compound 0.02 µM) was 0.669 and the relative viability (LXF-289; first compound 0.06325 µM) was 0.622. For the same molecule, the relative viability (LXF-289; first compound 0.2 µM) was 0.624, the relative viability (HCC-15; first compound 0.002 µM) was 0.394 and the relative viability (HCC-15; first compound 0.006325 µM) was 0.364. It also gave a relative viability (HCC-15; first compound 0.02 µM) of 0.391, a relative viability (HCC-15; first compound 0.06325 µM) of 0.258 and a relative viability (HCC-15; first compound 0.2 µM) of 0.13. It also gave a relative viability (NCI-H1437; first compound 0.002 µM) of 0.595, a relative viability (NCI-H1437; first compound 0.006325 µM) of 0.52 and a relative viability (NCI-H1437; first compound 0.02 µM) of 0.492. The relative viability (NCI-H1437; first compound 0.06325 µM) was 0.325, the relative viability (NCI-H1437; first compound 0.2 µM) was 0.217 and the relative viability (NCI-H23; first compound 0.002 µM) was 0.397. For the same molecule, the relative viability (NCI-H23; first compound 0.006325 µM) was 0.424, the relative viability (NCI-H23; first compound 0.02 µM) was 0.333 and the relative viability (NCI-H23; first compound 0.06325 µM) was 0.13. For the same molecule, the relative viability (NCI-H23; first compound 0.2 µM) was 0.156, the relative viability (NCI-H661; first compound 0.002 µM) was 0.56 and the relative viability (NCI-H661; first compound 0.006325 µM) was 0.553. It also gave a relative viability (NCI-H661; first compound 0.02 µM) of 0.382, a relative viability (NCI-H661; first compound 0.06325 µM) of 0.265 and a relative viability (NCI-H661; first compound 0.2 µM) of 0.256. The relative viability (PC-14; first compound 0.002 µM) was 0.738, the relative viability (PC-14; first compound 0.006325 µM) was 0.652 and the relative viability (PC-14; first compound 0.02 µM) was 0.243. For the same molecule, the relative viability (PC-14; first compound 0.06325 µM) was 0.0663, the relative viability (PC-14; first compound 0.2 µM) was 0.0601 and the relative viability (PC-3 [JPC-3]; first compound 0.002 µM) was 0.75. For the same molecule, the relative viability (PC-3 [JPC-3]; first compound 0.006325 µM) was 0.682, the relative viability (PC-3 [JPC-3]; first compound 0.02 µM) was 0.517 and the relative viability (PC-3 [JPC-3]; first compound 0.06325 µM) was 0.505. The relative viability (PC-3 [JPC-3]; first compound 0.2 µM) was 0.457, the relative viability (NCI-H2228; first compound 0.002 µM) was 0.512 and the relative viability (NCI-H2228; first compound 0.006325 µM) was 0.336. For the same molecule, the relative viability (NCI-H2228; first compound 0.02 µM) was 0.133, the relative viability (NCI-H2228; first compound 0.06325 µM) was 0.0941 and the relative viability (NCI-H2228; first compound 0.2 µM) was 0.106. It also gave a relative viability (NCI-H2009; first compound 0.002 µM) of 0.271, a relative viability (NCI-H2009; first compound 0.006325 µM) of 0.225 and a relative viability (NCI-H2009; first compound 0.02 µM) of 0.169. For the same molecule, the relative viability (NCI-H2009; first compound 0.06325 µM) was 0.0625, the relative viability (NCI-H2009; first compound 0.2 µM) was 0.0698 and the relative viability (HCC-366; first compound 0.002 µM) was 0.354. It also gave a relative viability (HCC-366; first compound 0.006325 µM) of 0.363, a relative viability (HCC-366; first compound 0.02 µM) of 0.349 and a relative viability (HCC-366; first compound 0.06325 µM) of 0.026. The relative viability (HCC-366; first compound 0.2 µM) was 0.0301, the relative viability (NCI-H2342; first compound 0.002 µM) was 0.687 and the relative viability (NCI-H2342; first compound 0.006325 µM) was 0.881. It also gave a relative viability (NCI-H2342; first compound 0.02 µM) of 0.551, a relative viability (NCI-H2342; first compound 0.06325 µM) of 0.889 and a relative viability (NCI-H2342; first compound 0.2 µM) of 0.52. For the same molecule, the relative viability (LC-2-ad; first compound 0.002 µM) was 0.926, the relative viability (LC-2-ad; first compound 0.006325 µM) was 0.903 and the relative viability (LC-2-ad; first compound 0.02 µM) was 1.06. It also gave a relative viability (LC-2-ad; first compound 0.06325 µM) of 0.889, a relative viability (LC-2-ad; first compound 0.2 µM) of 0.647 and a relative viability (COR-L23; first compound 0.002 µM) of 0.569. For the same molecule, the relative viability (COR-L23; first compound 0.006325 µM) was 0.462, the relative viability (COR-L23; first compound 0.02 µM) was 0.223 and the relative viability (COR-L23; first compound 0.06325 µM) was 0.0665. The relative viability (COR-L23; first compound 0.2 µM) was 0.0604, the relative viability (SK-MES-1; first compound 0.002 µM) was 0.551 and the relative viability (SK-MES-1; first compound 0.006325 µM) was 0.469. For the same molecule, the relative viability (SK-MES-1; first compound 0.02 µM) was 0.576, the relative viability (SK-MES-1; first compound 0.06325 µM) was 0.177 and the relative viability (SK-MES-1; first compound 0.2 µM) was 0.166. The relative viability (HCC-827; first compound 0.002 µM) was 0.533, the relative viability (HCC-827; first compound 0.006325 µM) was 0.506 and the relative viability (HCC-827; first compound 0.02 µM) was 0.279. The relative viability (HCC-827; first compound 0.06325 µM) was 0.154, the relative viability (HCC-827; first compound 0.2 µM) was 0.15 and the relative viability (LCLC-103H; first compound 0.002 µM) was 0.625. The relative viability (LCLC-103H; first compound 0.006325 µM) was 0.657, the relative viability (LCLC-103H; first compound 0.02 µM) was 0.699 and the relative viability (LCLC-103H; first compound 0.06325 µM) was 0.693. For the same molecule, the relative viability (LCLC-103H; first compound 0.2 µM) was 0.689, the relative viability (NCI-H1975; first compound 0.002 µM) was 0.349 and the relative viability (NCI-H1975; first compound 0.006325 µM) was 0.334. For the same molecule, the relative viability (NCI-H1975; first compound 0.02 µM) was 0.168, the relative viability (NCI-H1975; first compound 0.06325 µM) was 0.107 and the relative viability (NCI-H1975; first compound 0.2 µM) was 0.118. For the same molecule, the relative viability (NCI-H1666; first compound 0.002 µM) was 0.845, the relative viability (NCI-H1666; first compound 0.006325 µM) was 0.869 and the relative viability (NCI-H1666; first compound 0.02 µM) was 0.942. The relative viability (NCI-H1666; first compound 0.06325 µM) was 0.818, the relative viability (NCI-H1666; first compound 0.2 µM) was 0.982 and the relative viability (UMC-11; first compound 0.002 µM) was 0.496. It also gave a relative viability (UMC-11; first compound 0.006325 µM) of 0.685, a relative viability (UMC-11; first compound 0.02 µM) of 0.308 and a relative viability (UMC-11; first compound 0.06325 µM) of 0.212. For the same molecule, the relative viability (UMC-11; first compound 0.2 µM) was 0.157.

From the supplement of paper PMC10307832
